Test results published in patent publication US10239883B2, “4-imidazopyridazin-1-yl-benzamides as BTK inhibitors” (Merck Sharp & Dohme B.V., priority 2011, dated 2019).

Molecular target: Btk enzyme (His-Btk) (Homo sapiens (Human), UniProt Q06187)
Assay: Btk enzyme activity, IMAP fluorescence polarization assay
Details: 60 min pre-incubation, 5 μM ATP

Sequence of Btk enzyme (His-Btk) (Q06187 whole entry): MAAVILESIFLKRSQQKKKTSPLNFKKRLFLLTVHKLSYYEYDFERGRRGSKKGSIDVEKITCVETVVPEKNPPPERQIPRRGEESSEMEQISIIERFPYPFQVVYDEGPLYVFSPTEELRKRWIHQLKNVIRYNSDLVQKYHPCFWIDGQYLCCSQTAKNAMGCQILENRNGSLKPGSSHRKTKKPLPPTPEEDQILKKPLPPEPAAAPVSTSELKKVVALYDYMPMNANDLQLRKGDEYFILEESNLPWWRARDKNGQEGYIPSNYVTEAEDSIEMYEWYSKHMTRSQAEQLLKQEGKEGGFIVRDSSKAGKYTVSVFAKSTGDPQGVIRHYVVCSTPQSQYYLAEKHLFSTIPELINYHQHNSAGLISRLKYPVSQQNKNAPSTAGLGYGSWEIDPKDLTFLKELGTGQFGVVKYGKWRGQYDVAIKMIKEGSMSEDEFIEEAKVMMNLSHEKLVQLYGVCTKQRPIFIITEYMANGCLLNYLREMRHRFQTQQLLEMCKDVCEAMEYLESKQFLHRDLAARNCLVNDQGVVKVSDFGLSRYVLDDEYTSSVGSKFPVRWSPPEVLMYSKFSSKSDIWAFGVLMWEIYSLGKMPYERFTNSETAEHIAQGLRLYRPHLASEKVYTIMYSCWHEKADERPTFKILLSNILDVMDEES

SMILES | EC50 Btk activity values (bin bound in μM) | EC50 Btk activity values (bin bound in nM)
COC/C=C/C(=O)N1CCCC[C@H]1c1nc(-c2ccc(C(=O)Nc3ccncn3)cc2)c2c(N)nccn12 [Example 86, (S,E)-4-(8-amino-3-(1-(4-methoxybut-2-enoyl)piperidin-2-yl)imidazo[1,5-a]pyrazin-1-yl)-N-(pyrimidin-4-yl)benzamide] | <1 µM | –
CC#CC(=O)N1CCCC[C@H]1c1nc(-c2ccc(C(=O)Nc3ccon3)cc2)c2c(N)nccn12 [Example 24, (S)-4-(8-Amino-3-(1-but-2-ynoylpiperidin-2-yl)imidazo[1,5-a]pyrazin-1-yl)-N-(isoxazol-3-yl)benzamide] | – | <0.1 µM
COc1cc(-c2nc([C@@H]3CCCN3C(=O)c3ccnc(Cl)n3)n3ccnc(N)c23)ccc1C(=O)Nc1ccccn1 [Example 83, (S)-4-(8-amino-3-(1-(2-chloropyrimidine-4-carbonyl)pyrrolidin-2-yl)imidazo[1,5-a]pyrazin-1-yl)-2-methoxy-N-(pyridin-2-yl)benzamide] | – | <0.1 µM
COC/C=C/C(=O)N1CCCC[C@H]1c1nc(-c2ccc(C(=O)Nc3cc(F)ccn3)cc2)c2c(N)nccn12 [Example 81, (S,E)-4-(8-amino-3-(1-(4-methoxybut-2-enoyl)piperidin-2-yl)imidazo[1,5-a]pyrazin-1-yl)-N-(4-fluoropyridin-2-yl)benzamide] | – | <0.1 µM
CC#CC(=O)N1CCC[C@H]1c1nc(-c2ccc(C(=O)Nc3cc(F)ccn3)cc2)c2c(N)nccn12 [Example 106, (S)-4-(8-amino-3-(1-but-2-ynoylpyrrolidin-2-yl)imidazo[1,5-a]pyrazin-1-yl)-N-(4-fluoropyridin-2-yl)benzamide] | – | <0.1 µM
COC/C=C/C(=O)N1CCC[C@H]1c1nc(-c2ccc(C(=O)Nc3ccccn3)c(F)c2)c2c(N)nccn12 [Example 52] | <1 µM | –
Nc1nccn2c([C@@H]3CCCN3C(=O)c3ccnc(Cl)n3)nc(-c3ccc(C(=O)Nc4nc5c(s4)CCCC5)cc3)c12 [Example 71, (S)-4-(8-amino-3-(1-(2-chloropyrimidine-4-carbonyl)pyrrolidin-2-yl)imidazo[1,5-a]pyrazin-1-yl)-N-(4,5,6,7-tetrahydrobenzo[d]thiazol-2-yl)benzamide] | – | <0.1 µM
COC/C=C/C(=O)N1CCCC[C@H]1c1nc(-c2ccc(C(=O)Nc3nccc(C)n3)cc2)c2c(N)nccn12 [Example 88, (S,E)-4-(8-amino-3-(1-(4-methoxybut-2-enoyl)piperidin-2-yl)imidazo[1,5-a]pyrazin-1-yl)-N-(4-methylpyrimidin-2-yl)benzamide] | <1 µM | –
COC/C=C/C(=O)N1CCCC[C@H]1c1nc(-c2ccc(C(=O)Nc3cccnn3)cc2)c2c(N)nccn12 [Example 72, (S,E)-4-(8-amino-3-(1-(4-methoxybut-2-enoyl)piperidin-2-yl)imidazo[1,5-a]pyrazin-1-yl)-N-(pyridazin-3-yl)benzamide] | <1 µM | –
COC/C=C/C(=O)N1CCCC[C@H]1c1nc(-c2ccc(C(=O)Nc3ncccn3)cc2)c2c(N)nccn12 [Example 55, (S,E)-4-(8-amino-3-(1-(4-methoxybut-2-enoyl)piperidin-2-yl)imidazo[1,5-a]pyrazin-1-yl)-N-(pyrimidin-2-yl)benzamide] | <1 µM | –
CN(C)C/C=C/C(=O)N1CCCC[C@H]1c1nc(-c2ccc(C(=O)Nc3cccnn3)cc2)c2c(N)nccn12 [Example 73, (S,E)-4-(8-amino-3-(1-(4-(dimethylamino)but-2-enoyl)piperidin-2-yl)imidazo[1,5-a]pyrazin-1-yl)-N-(pyridazin-3-yl)benzamide] | – | <0.1 µM
COC/C=C/C(=O)N1CCCCCC1c1nc(-c2ccc(C(=O)Nc3ccccn3)cc2)c2c(N)nccn12 (stereo not drawn) [Example 97, (E)-4-(8-amino-3-(1-(4-methoxybut-2-enoyl)azepan-2-yl)imidazo[1,5-a]pyrazin-1-yl)-N-(pyridin-2-yl)benzamide] | – | <0.1 µM
